{
  "source": "patent US20200113816A1",
  "about": "“REACTIONS TRIGGERED BY COOLING-INDUCED GEL-TO-SOL TRANSITION OF THERMORESPONSIVE POLYMERS” (Vanderbilt University, priority 2018, published 2020)",
  "test_system": "Sprague-Dawley rats",
  "experiment": "Neurobehavioral testing of nerve block, cooling-triggered local anesthesia",
  "type": "in vivo",
  "details": "injected, 15 mg/mL in sterile saline",
  "source_text": "Nile Red- or bupivacaine-loaded gels are implanted in adult Sprague-Dawley rats alongside a wireless temperature probe. Stability are characterized using dye-loaded formulations, with animals imaged daily to determine the extent to which the dye leaks from the gelled implant; quantitative data are derived from depletion of the Nile Red fluorescence signal. To characterize release, rats implanted with dye-loaded formulations are subjected to a cooling stimulus (ice applied to the skin while tissue temperature is remotely monitored), and subsequently imaged to determine the extent to which cooling triggers release of the sequestered compound in vivo as observed by decrease in the depot fluorescence intensity. Multiple cycles of cooling are performed (with a 24-hour recovery period between cycles) until no significant change in the fluorescence signal from the depot is observed. […] The difference between the duration of nerve blocks due to injection of bupivacaine solution and the duration of blocks caused by cooling-triggered release from an implanted device is determined. To investigate tissue response to the implanted devices, after the animals are sacrificed the tissue surrounding the sciatic nerve is removed, processed for histology (H&E staining), and analyzed via optical microscopy.",
  "data": [
    {"smiles": "CCCCN1CCCCC1C(=O)Nc1c(C)cccc1C", "note": "(stereo not shown) [bupivacaine]", "values": [
      {"measurement": "baseline nerve block duration", "result": "~200", "unit": "min"}
    ]}
  ]
}
